Earlier results, collected in US20220290237A1, “METHOD FOR PREDICTING THE RESPONSE OF ANTIPSYCHOTIC DRUGS” (INSERM (INSTITUT NATIONAL DE LA SANTÉ ET DE LA RECHERCHE …, priority 2019, published 2022).

Conditions: first episode psychosis patients; cited from earlier work

## Cc1cc2c(s1)Nc1ccccc1N=C2N1CCN(C)CC1 [olanzapine, 2-méthyl-4-(4-méthyl-1-pipérazinyl)-10H-thiéno[2,3-b][1,5]benzodiazepine]
  outcome after change from amisulpride to olanzapine: did not improve outcome for most of the patient
